Consider 4 molecules from patent publication US20140249141A1, “1,4-DIAZABICYCLO[3.2.2]NONANES AS NEURONAL NICOTINIC ACETYLCHOLINE RECEPTOR LIGANDS” (Targacept, Inc., priority 2011, published 2014).

Assay [1] concerns the target T1, human α4β2 (Homo sapiens, UniProt P17787+P43681).
T1 construct: expressed in transfected cells; membranes prepared from the cells
Description: Competition binding to human α4β2 nicotinic receptor in membrane preparations. The procedure:
(§1) SH-EP1/human α4β2 (Eaton et al., 2003), SH-EP1/human α4β4 (Gentry et al., 2003), SH-EP1/α6β3β4α5 (Grinevich et al., 2005), TE671/RD and SH-SY5Y cell lines (obtained from Dr. Ron Lukas, Barrow Neurological Institute, St. Joseph's Hospital and Medical Center, Phoenix, Ariz.) were maintained in proliferative growth phase in Dulbecco's modified Eagle's medium (Gibco/BRL) with 10% horse serum (Gibco BRL), 5% fetal bovine serum (HyClone, Logan Utah), 1 mM sodium pyruvate, 4 mM L-glutamine. For maintenance of stable transfectants, the α4β2 and α4β4 cell media was supplemented with 0.25 mg/mL zeocin and 0.13 mg/mL hygromycin B. Selection was maintained for the α6β3β4α5 cells with 0.25 mg/mL of zeocin, 0.13 mg/mL of hygromycin B, 0.4 mg/mL of geneticin, and 0.2 mg/mL of blasticidin. HEK/human α7/RIC3 cells (obtained from J. Lindstrom, U. Pennsylvania, Philadelphia, Pa.) were maintained in proliferative growth phase in Dulbecco's modified Eagle's medium (Gibco/BRL) with 10% fetal bovine serum (HyClone, Logan Utah), 1 mM sodium pyruvate, 4 mM L-glutamine, 0.4 mg/mL geneticin; 0.2 mg/ml hygromycin B.
(§2) Cells were harvested in ice-cold PBS, pH 7.4, then homogenized with a polytron (Brinkmann Instruments, Westbury, N.Y.). Homongenates were centrifuged at 40,000 g for 20 minutes (4° C.). The pellet was resuspended in PBS and protein concentration determined using the Pierce BCA Protein Assay kit (Pierce Biotechnology, Rockford, Ill.).
(§3) Binding to nicotinic receptors was assayed on membranes using standard methods adapted from published procedures (Lippiello and Fernandes, 1986; Davies et al., 1999). In brief, membranes were reconstituted from frozen stocks (approximately 0.2 mg protein) and incubated for 2 h on ice in […] assay buffer (PBS) in the presence of competitor compound (0.001 nM to 100 mM) and radioligand. […] Filters were washed 3 times and the radioactivity retained was determined by liquid scintillation counting.
(§4) Binding data were expressed as percent total control binding. […] Ki was calculated using the Cheng-Prusoff equation (Cheng and Prusoff, 1973).

In assay [2] the target is T2, human α7 (Homo sapiens, UniProt P36544).
T2 construct: expressed in transfected cells; host or cells: HEK cells expressing human α7 and RIC3, obtained from J. Lindstrom, U. Pennsylvania; membranes prepared from the cells
The experiment in a line: Competition binding to human α7 nicotinic receptor in membrane preparations. The procedure: as §1, §2, §3, §4

Assay [3] deals with ova-challenged mice. Description: Ovalbumin-induced lung inflammation (allergic asthma) model, airway hyperresponsiveness. In kind it is in vivo. The note with it: FIGS. 1 and 2, compared to control. From the text:
Ovalbumin-induced allergic asthma is a widely used model to reproduce the airway eosinophilia, pulmonary inflammation and elevated IgE levels found during asthma. Studies can be run with or without airway hyper-responsiveness (AHR) measurements. Allergic asthma is typically triggered by allergens in the air such as pollen, mold, dust mites, etc., and is commonly characterized by reversible […], elevated levels of IgE causing mast cell activation, chronic airway inflammation, and airway hyper-responsiveness (AHR). The immunological processes involved are characterized by proliferation and activation of Th2 lymphocytes, setting off an allergic cascade.
FIGS. 1 and 2 illustrate Compound A and Control compounds in the ovalbumin-induced lung inflammation model. For detailed procedures, see Hamelmann E, Schwarze J, Takeda K, Oshiba A, Larsen G L, Irvin C G, and Gelfand E W. Noninvasive measurement of airway responsiveness in allergic mice using barometric plethysmography. Am. J. Respir. Crit. Care Med 156: 766-775, 1997, herein incorporated by reference.

[4] abbreviates: SH-EP1/human α4β2 cell membranes, [3H]-nicotine, Cheng-Prusoff, read-out: Human α4β2 Ki.

Entries after “also recorded” stand apart in the source; their conditions may differ. Like-named read-outs stand apart in the source and are kept apart here.

For `O=c1cc(N2CCN3CCC2CC3)nc2cc(-c3ccccc3)on12`, the Ki in assay [1] (setting [4]) is 1200 nM; in assay [2] (HEK/human α7/RIC3 cell membranes, [3H]-epibatidine, Cheng-Prusoff, read-out: Human α7 Ki) it was 280 nM.

Consider `O=c1cc(N2CCN3CCC2CC3)nc2c3ccccc3on12`, for which the Ki stood at 1200 nM in assay [1] and 55 nM in assay [2]. As to `Cc1cc2nc(N3CCN4CCC3CC4)cc(=O)n2o1` [Compound A, 5-(1,4-diazabicyclo[3.2.2]nonan-4-yl)-2-methyl-7H-isoxazolo[2,3-a]pyrimidin-7-one], in assay [3], the “methacholine (MCh)-induced bronchoconstriction (Penh, index of airway resistance)” value was “statistically significant results; also recorded: reduces methacholine (MCh)-induced bronchoconstriction”.

Regarding `Cc1cc2nc(N3CCN4CCC3CC4)cc(=O)n2o1` [drawing 5], the Ki in assay [1] (setting [4]) amounted to 3200 nM; in assay [2] it was 42 nM.

For orientation: Ki means a dissociation constant, usually derived from enzyme kinetics or from competition with a known ligand.
